Assay results: ChEMBL document CHEMBL4049383, “Emergence of Small-Molecule Non-RGD-Mimetic Inhibitors for RGD Integrins” (J Med Chem, 2017)

What was measured:
[1] = target: Integrin alpha-IIb/beta-3 (Homo sapiens, UniProt P05106+P08514)
Description: Displacement of [3H]UR-3189 from integrin alpha2b beta3 receptor in resting human platelet

[2] = Stability of the compound in human microsomes; assay type: ADME, Microsome; conditions: read-out: Stability

Integrin alpha-IIb/beta-3, sequence (P05106 27-788 limits assumed): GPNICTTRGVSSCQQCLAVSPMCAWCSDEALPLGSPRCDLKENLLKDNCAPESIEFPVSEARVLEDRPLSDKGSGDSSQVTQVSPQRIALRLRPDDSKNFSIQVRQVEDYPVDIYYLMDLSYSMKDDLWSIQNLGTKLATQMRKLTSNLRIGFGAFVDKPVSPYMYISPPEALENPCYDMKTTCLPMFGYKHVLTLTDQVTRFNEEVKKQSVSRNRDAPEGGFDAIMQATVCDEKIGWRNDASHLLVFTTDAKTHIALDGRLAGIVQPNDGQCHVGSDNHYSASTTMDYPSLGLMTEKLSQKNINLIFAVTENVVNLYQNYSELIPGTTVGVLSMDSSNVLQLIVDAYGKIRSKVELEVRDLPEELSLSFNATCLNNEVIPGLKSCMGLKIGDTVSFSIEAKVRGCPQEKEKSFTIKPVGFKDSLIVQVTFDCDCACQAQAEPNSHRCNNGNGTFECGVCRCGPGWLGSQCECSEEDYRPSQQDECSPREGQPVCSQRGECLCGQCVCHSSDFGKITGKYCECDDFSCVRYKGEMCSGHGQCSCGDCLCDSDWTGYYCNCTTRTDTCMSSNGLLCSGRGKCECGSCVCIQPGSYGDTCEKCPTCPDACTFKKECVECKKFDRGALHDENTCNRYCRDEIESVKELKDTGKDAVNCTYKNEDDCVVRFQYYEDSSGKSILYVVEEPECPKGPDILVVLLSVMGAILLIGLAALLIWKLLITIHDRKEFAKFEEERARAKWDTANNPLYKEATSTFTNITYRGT
Integrin alpha-IIb/beta-3, sequence (P08514 32-887 limits assumed): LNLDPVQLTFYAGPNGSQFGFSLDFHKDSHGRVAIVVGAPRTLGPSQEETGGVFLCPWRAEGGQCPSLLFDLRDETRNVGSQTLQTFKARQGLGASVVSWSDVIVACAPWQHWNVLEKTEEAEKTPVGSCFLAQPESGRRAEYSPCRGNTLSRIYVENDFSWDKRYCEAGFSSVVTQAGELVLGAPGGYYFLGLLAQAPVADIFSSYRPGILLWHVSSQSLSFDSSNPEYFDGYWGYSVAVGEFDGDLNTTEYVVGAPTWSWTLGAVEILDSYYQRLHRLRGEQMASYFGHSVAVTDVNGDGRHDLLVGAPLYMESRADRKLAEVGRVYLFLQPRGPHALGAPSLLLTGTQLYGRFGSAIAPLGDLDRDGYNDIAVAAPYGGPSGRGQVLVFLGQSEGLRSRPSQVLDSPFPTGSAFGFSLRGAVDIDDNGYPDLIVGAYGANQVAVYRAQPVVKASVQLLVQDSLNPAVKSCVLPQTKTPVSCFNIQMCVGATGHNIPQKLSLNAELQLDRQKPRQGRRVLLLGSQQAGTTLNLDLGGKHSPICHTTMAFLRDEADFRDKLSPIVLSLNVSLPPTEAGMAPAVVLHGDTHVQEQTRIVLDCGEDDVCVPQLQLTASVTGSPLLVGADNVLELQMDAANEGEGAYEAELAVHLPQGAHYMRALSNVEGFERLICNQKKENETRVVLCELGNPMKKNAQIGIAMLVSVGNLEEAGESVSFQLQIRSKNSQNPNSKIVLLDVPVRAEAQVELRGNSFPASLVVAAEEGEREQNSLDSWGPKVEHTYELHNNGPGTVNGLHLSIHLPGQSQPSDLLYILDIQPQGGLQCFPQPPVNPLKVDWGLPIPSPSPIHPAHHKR
Integrin alpha-IIb/beta-3, sequence (P08514 891-1039 limits assumed): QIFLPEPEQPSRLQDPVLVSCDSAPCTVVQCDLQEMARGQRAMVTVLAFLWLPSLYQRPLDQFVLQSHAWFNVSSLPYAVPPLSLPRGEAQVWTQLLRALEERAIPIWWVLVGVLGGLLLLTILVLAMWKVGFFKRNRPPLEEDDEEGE

Compound | Ki [1] | microsomal CLint [2]
[H]/N=C(\N)c1ccc(C(=O)N[C@@H](Cc2ccc([N+](=O)[O-])cc2)C(=O)N2CCc3nn(CC(=O)O)cc3C2)cc1 | < 1 nM | 
NCC(=O)Nc1cncc(-c2nn3c(=O)cc(N4CCNCC4)nc3s2)c1 [ZALUNFIBAN] |  | 23.2 µL/min/mg
